Data taken from patent publication US12446577B2 (priority 2018, dated 2025).

Tests used:
Plasmopara viticola = Plasmopara viticola grapevine leaf disc test; assay type: in vivo
Procedure: A stock solution of choline pelargonate (29.1% PLA and 40.4% Choline hydroxide, pH 8.82) was made by mixing 14.55 mL PLA with 15.25 mL distilled water and afterwards the addition of 20.2 mL of Choline hydroxide. The choline pelargonate stock solution (42.04%) was diluted in order to create a solution with a final concentration of choline pelargonate equal to 1 mL/L and 10 mL/L. The two choline pelargonate solutions, water as negative control and copper hydroxide (2 g/L) as positive control were used for this test. For each object 4 Petri plates were prepared and each plate contains 5 grapevine leaf discs (see Table 8 below).
Leaf discs preparation: leaf discs (diameter 19 mm) were prepared from grapevine cuttings (variety Pinot Nero Entav 115) using the young leaves. 5 leaf discs were placed in each Petri Plate on autoclaved paper (4 layers), the paper was previously wetted by adding 8.5 mL of sterile water in each plate. The leaf discs were placed on the paper with the abaxial side upward.
Test products application and pathogen inoculation: leaf discs were treated with the test products at 11.30 A.M (i.e. a preventive application) and the leaves were allowed to dry. The products were sprayed with a small hand sprayer; 5 sprays were applied on each plate. The same day at 16.30 a suspension of P. viticola spores at final concentration of 2*10^5 spore/mL was applied (5 hours after test product application) on the leaf discs. The inoculated plates were incubated overnight in the dark at 25° C. The following day, the leaf discs were dried under the laminar flow and then placed back at 25° C. The disease assessment was done 7 days after the artificial inoculation.

Sclerotinia minor = assay: Mycelium growth inhibition on PDA (Example 7); assay type: cell-based; details: 3 days at 25° C; for Average mycelium diameter: n = 4
Procedure: Strains used for this trial were kept and refreshed on Potato Dextrose Agar (PDA) at 25° C.
To begin, a quantity of test product was directly added in a certain volume of PDA (about 20 mL/petri dish) (Table 11). Plugs of agar (diameter 10 mm) from one week-old cultures were placed at the centre of the PDA plates. Each object was performed in 4 repetitions. The petri dishes were then incubated at 25° C. in the dark. After 3 and 6 days of incubation, the diameter of the colonies was measured in 2 perpendicular directions. The percentage of inhibition was calculated for each product/concentration compare to the untreated.

CCCCCCCCC(=O)[O-].C[N+](C)(C)CCO [Choline pelargonate, choline pelargonate]
disease severity (level of sporulation) (Plasmopara viticola; 1 mL/L, preventive spray, 7 days after the artificial inoculation): 5.3% | disease severity (Plasmopara viticola; 10 mL/L, preventive spray, 7 days after the artificial inoculation): 0% | efficacy against P. viticola (Plasmopara viticola; test repeated a second and a third time (data not shown)): comparable with the reference copper | % efficacy compared to control (Abbott) (Sclerotinia minor; 0.042% a.i. in PDA): 96% | Average mycelium diameter (Sclerotinia minor; 0.042% a.i. in PDA): 2.8 ± 4.3 mm | % efficacy compared to control (Abbott) (Sclerotinia minor; 0.42% a.i. in PDA): 99% | Average mycelium diameter (Sclerotinia minor; 0.42% a.i. in PDA): 0.8 ± 0.9 mm
